{
  "source": "patent US8791108B2",
  "about": "“Inhibitors of human immunodeficiency virus replication” (priority 2011, dated 2014)",
  "system": "recombinant NL-Rluc virus",
  "test": "Inhibition of HIV replication (NL-RLuc luciferase reporter virus, MT-2 cells)",
  "format": "cell-based",
  "key": {"[1]": {"settings": "Human immunodeficiency virus 1, MT2, 120 h, read-out: Activity"}, "[2]": {"settings": "Human immunodeficiency virus 1, MT2, 120 h, read-out: EC50 μM"}},
  "note": "Read-outs that look alike come from different tables or passages of the source.",
  "data": [
    {"molecule": "CCCNC(=O)c1cc2nc(C)c([C@H](OC(C)(C)C)C(=O)O)c(-c3cc(F)c4c(c3C)CCCO4)n2n1", "note": "[Example 124, (2S)-2-(tert-butoxy)-2-(7-(8-fluoro-5-methylchroman-6-yl)-5-methyl-2-(propylcarbamoyl)pyrazolo[1,5-a]pyrimidin-6-yl)acetic acid]", "values": [
      {"measurement": "EC50", "setting": "[1]", "value": "0.1 to 1", "unit": "µM"}
    ]},
    {"molecule": "Cc1nc2cc(C(=O)NCc3ccccc3C(F)(F)F)nn2c(-c2cc(F)c3c(c2C)CCCO3)c1[C@H](OC(C)(C)C)C(=O)O", "note": "[Example 125, (2S)-2-(tert-butoxy)-2-(7-(8-fluoro-5-methylchroman-6-yl)-5-methyl-2-((2-(trifluoromethyl)benzyl)carbamoyl)pyrazolo[1,5-a]pyrimidin-6-yl)acetic acid]", "values": [
      {"measurement": "EC50", "setting": "[1]", "value": "< 0.1", "unit": "µM"}
    ]},
    {"molecule": "Cc1nc2cc(C(=O)NCC34C[C@H]5C[C@@H](C3)C[C@@H](C4)C5)nn2c(-c2cc(F)c3c(c2C)CCCO3)c1[C@H](OC(C)(C)C)C(=O)O", "note": "[Example 126, (2S)-2-(2-(((3S,5S,7S)-adamantan-1-ylmethyl)carbamoyl)-7-(8-fluoro-5-methylchroman-6-yl)-5-methylpyrazolo[1,5-a]pyrimidin-6-yl)-2-(tert-butoxy)acetic acid]", "values": [
      {"measurement": "EC50", "setting": "[1]", "value": "< 0.1", "unit": "µM"}
    ]},
    {"molecule": "Cc1nc2cc(C(=O)NCC(C)(C)C)nn2c(-c2cc(F)c3c(c2C)CCCO3)c1[C@H](OC(C)(C)C)C(=O)O", "note": "[Example 127, (2S)-2-(tert-butoxy)-2-(7-(8-fluoro-5-methylchroman-6-yl)-5-methyl-2-(neopentylcarbamoyl)pyrazolo[1,5-a]pyrimidin-6-yl)acetic acid]", "values": [
      {"measurement": "EC50", "setting": "[1]", "value": "0.1 to 1", "unit": "µM"}
    ]},
    {"molecule": "Cc1nc2cc(C(=O)NCCC3CCCCC3)nn2c(-c2cc(F)c3c(c2C)CCCO3)c1[C@H](OC(C)(C)C)C(=O)O", "note": "[Example 128, (2S)-2-(tert-butoxy)-2-(2-((2-cyclohexylethyl)carbamoyl)-7-(8-fluoro-5-methylchroman-6-yl)-5-methylpyrazolo[1,5-a]pyrimidin-6-yl)acetic acid]", "values": [
      {"measurement": "EC50", "setting": "[1]", "value": "< 0.1", "unit": "µM"}
    ]},
    {"molecule": "Cc1nc2cc(C(=O)NCCC3CCOCC3)nn2c(-c2cc(F)c3c(c2C)CCCO3)c1[C@H](OC(C)(C)C)C(=O)O", "note": "[Example 129, (2S)-2-(tert-butoxy)-2-(7-(8-fluoro-5-methylchroman-6-yl)-5-methyl-2-((2-(tetrahydro-2H-pyran-4-yl)ethyl)carbamoyl)pyrazolo[1,5-a]pyrimidin-6-yl)acetic acid]", "values": [
      {"measurement": "EC50", "setting": "[1]", "value": "0.1 to 1", "unit": "µM"}
    ]},
    {"molecule": "Cc1nc2cc(C(=O)NCCC34C[C@H]5C[C@@H](C3)C[C@@H](C4)C5)nn2c(-c2cc(F)c3c(c2C)CCCO3)c1[C@H](OC(C)(C)C)C(=O)O", "note": "[Example 130]", "values": [
      {"measurement": "EC50", "setting": "[1]", "value": "< 0.1", "unit": "µM"}
    ]},
    {"molecule": "Cc1nc2cc(C(=O)NCCCC3CCCCC3)nn2c(-c2cc(F)c3c(c2C)CCCO3)c1[C@H](OC(C)(C)C)C(=O)O", "note": "[Example 131]", "values": [
      {"measurement": "EC50", "setting": "[1]", "value": "< 0.1", "unit": "µM"}
    ]},
    {"molecule": "Cc1nc2cc(C(=O)NCCCC3CCOC3)nn2c(-c2cc(F)c3c(c2C)CCCO3)c1[C@H](OC(C)(C)C)C(=O)O", "note": "(stereo partly drawn) [Example 132, (2S)-2-(tert-butoxy)-2-(7-(8-fluoro-5-methylchroman-6-yl)-5-methyl-2-((3-(tetrahydrofuran-3-yl)propyl)carbamoyl)pyrazolo[1,5-a]pyrimidin-6-yl)acetic acid]", "values": [
      {"measurement": "EC50", "setting": "[1]", "value": "0.1 to 1", "unit": "µM"}
    ]},
    {"molecule": "CCCOCCNC(=O)c1cc2nc(C)c([C@H](OC(C)(C)C)C(=O)O)c(-c3cc(F)c4c(c3C)CCCO4)n2n1", "note": "[Example 133, (2S)-2-(tert-butoxy)-2-(7-(8-fluoro-5-methylchroman-6-yl)-5-methyl-2-((2-propoxyethyl)carbamoyl)pyrazolo[1,5-a]pyrimidin-6-yl)acetic acid]", "values": [
      {"measurement": "EC50", "setting": "[1]", "value": "0.1 to 1", "unit": "µM"},
      {"measurement": "EC50", "setting": "[2]", "value": 0.185, "unit": "µM"}
    ]},
    {"molecule": "Cc1nc2cc(C(=O)NCCC3(O)CCCC3)nn2c(-c2cc(F)c3c(c2C)CCCO3)c1[C@H](OC(C)(C)C)C(=O)O", "note": "[Example 134, (2S)-2-(tert-butoxy)-2-(7-(8-fluoro-5-methylchroman-6-yl)-2-((2-(1-hydroxycyclopentyl)ethyl)carbamoyl)-5-methylpyrazolo[1,5-a]pyrimidin-6-yl)acetic acid]", "values": [
      {"measurement": "EC50", "setting": "[1]", "value": "> 1", "unit": "µM"}
    ]},
    {"molecule": "Cc1nc2cc(C(=O)NCC34CC5C[C@H](C3)C(O)[C@H](C5)C4)nn2c(-c2cc(F)c3c(c2C)CCCO3)c1[C@H](OC(C)(C)C)C(=O)O", "note": "(stereo partly drawn) [Example 135, (2S)-2-(tert-butoxy)-2-(7-(8-fluoro-5-methylchroman-6-yl)-2-((((1R,3R,4S,5R,7S)-4-hydroxyadamantan-1-yl)methyl)carbamoyl)-5-methylpyrazolo[1,5-a]pyrimidin-6-yl)acetic acid]", "values": [
      {"measurement": "EC50", "setting": "NL-RLuc virus in MT-2 cells, 5 days of incubation, luciferase readout, serum condition not given, read-out: Activity", "value": "0.1 to 1", "unit": "µM"}
    ]},
    {"molecule": "Cc1nc2cc(C(=O)NCCSC(C)(C)C)nn2c(-c2cc(F)c3c(c2C)CCCO3)c1[C@H](OC(C)(C)C)C(=O)O", "note": "[Example 136, (2S)-2-(tert-butoxy)-2-(2-((2-(tert-butylthio)ethyl)carbamoyl)-7-(8-fluoro-5-methylchroman-6-yl)-5-methylpyrazolo[1,5-a]pyrimidin-6-yl)acetic acid]", "values": [
      {"measurement": "EC50", "setting": "[1]", "value": "< 0.1", "unit": "µM"}
    ]},
    {"molecule": "CNC(=O)c1cc2nc(C)c([C@H](OC(C)(C)C)C(=O)O)c(-c3cc(F)c4c(c3C)CCCO4)n2n1", "note": "[Example 137, (2S)-2-(tert-butoxy)-2-(7-(8-fluoro-5-methylchroman-6-yl)-5-methyl-2-(methylcarbamoyl)pyrazolo[1,5-a]pyrimidin-6-yl)acetic acid]", "values": [
      {"measurement": "EC50", "setting": "[1]", "value": "> 1", "unit": "µM"}
    ]},
    {"molecule": "Cc1cc(CNC(=O)c2nn3c(-c4cc(F)c5c(c4C)CCCO5)c([C@H](OC(C)(C)C)C(=O)O)c(C)nc3c2F)ccc1F", "note": "[Example 139, (2S)-2-(tert-Butoxy)-2-(3-fluoro-2-((4-fluoro-3-methylbenzyl)carbamoyl)-7-(8-fluoro-5-methylchroman-6-yl)-5-methylpyrazolo[1,5-a]pyrimidin-6-yl)acetic acid]", "values": [
      {"measurement": "EC50", "setting": "[1]", "value": "< 0.1", "unit": "µM"}
    ]},
    {"molecule": "Cc1cc(CNC(=O)c2nn3c(-c4cc(F)c5c(c4C)CCCO5)c([C@H](OC(C)(C)C)C(=O)O)c(C)nc3c2Cl)ccc1F", "note": "[Example 140, (2S)-2-(tert-Butoxy)-2-(3-chloro-2-((4-fluoro-3-methylbenzyl)carbamoyl)-7-(8-fluoro-5-methylchroman-6-yl)-5-methylpyrazolo[1,5-a]pyrimidin-6-yl)acetic acid]", "values": [
      {"measurement": "EC50", "setting": "[1]", "value": "< 0.1", "unit": "µM"}
    ]},
    {"molecule": "Cc1cc(CNC(=O)c2cc3nc(C)c([C@H](OC(C)(C)C)C(=O)O)c(-c4ccc5c(c4Cl)NCCO5)n3n2)ccc1F", "note": "[Example 141, (2S)-2-(tert-Butoxy)-2-(7-(5-chloro-3,4-dihydro-2H-benzo[b][1,4]oxazin-6-yl)-2-((4-fluoro-3-methylbenzyl)carbamoyl)-5-methylpyrazolo[1,5-a]pyrimidin-6-yl)acetic acid]", "values": [
      {"measurement": "EC50", "setting": "[1]", "value": "0.1 to 1", "unit": "µM"},
      {"measurement": "EC50", "setting": "[2]", "value": 0.114, "unit": "µM"}
    ]},
    {"molecule": "CCCCCc1ccccc1CNC(=O)c1cc2nc(C)c([C@H](OC(C)(C)C)C(=O)O)c(-c3ccc4c(c3Cl)NCCO4)n2n1", "note": "[Example 142, (2S)-2-(tert-Butoxy)-2-(7-(5-chloro-3,4-dihydro-2H-benzo[b][1,4]oxazin-6-yl)-5-methyl-2-((2-pentylbenzyl)carbamoyl)pyrazolo[1,5-a]pyrimidin-6-yl)acetic acid]", "values": [
      {"measurement": "EC50", "setting": "[1]", "value": "< 0.1", "unit": "µM"}
    ]},
    {"molecule": "CCCCOc1cc(F)ccc1CNC(=O)c1cc2nc(C)c([C@H](OC(C)(C)C)C(=O)O)c(-c3ccc4c(c3Cl)NCCO4)n2n1", "note": "[Example 143, (2S)-2-(tert-Butoxy)-2-(2-((2-butoxy-4-fluorobenzyl)carbamoyl)-7-(5-chloro-3,4-dihydro-2H-benzo[b][1,4]oxazin-6-yl)-5-methylpyrazolo[1,5-a]pyrimidin-6-yl)acetic acid]", "values": [
      {"measurement": "EC50", "setting": "[1]", "value": "< 0.1", "unit": "µM"},
      {"measurement": "EC50", "setting": "[2]", "value": 0.028, "unit": "µM"}
    ]},
    {"molecule": "Cc1nc2cc(C(=O)NCCC(C)(C)C)nn2c(-c2ccc3c(c2Cl)NCCO3)c1[C@H](OC(C)(C)C)C(=O)O", "note": "[Example 144, (2S)-2-(tert-Butoxy)-2-(7-(5-chloro-3,4-dihydro-2H-benzo[b][1,4]oxazin-6-yl)-2-((3,3-dimethylbutyl)carbamoyl)-5-methylpyrazolo[1,5-a]pyrimidin-6-yl)acetic acid]", "values": [
      {"measurement": "EC50", "setting": "[1]", "value": "0.1 to 1", "unit": "µM"},
      {"measurement": "EC50", "setting": "[2]", "value": 0.122, "unit": "µM"}
    ]},
    {"molecule": "Cc1cc(CNC(=O)c2cc3nc(C)c([C@H](OC(C)(C)C)C(=O)O)c(-c4cc5c(cc4F)OCCN5)n3n2)ccc1F", "note": "[Example 145, (2S)-2-(tert-Butoxy)-2-(7-(7-fluoro-3,4-dihydro-2H-benzo[b][1,4]oxazin-6-yl)-2-((4-fluoro-3-methylbenzyl)carbamoyl)-5-methylpyrazolo[1,5-a]pyrimidin-6-yl)acetic acid]", "values": [
      {"measurement": "EC50", "setting": "[1]", "value": "< 0.1", "unit": "µM"}
    ]},
    {"molecule": "Cc1nc2cc(C(=O)NCCC(C)(C)C)nn2c(-c2cc3c(cc2F)OCCN3)c1[C@H](OC(C)(C)C)C(=O)O", "note": "[Example 146, (2S)-2-(tert-Butoxy)-2-(2-((3,3-dimethylbutyl)carbamoyl)-7-(7-fluoro-3,4-dihydro-2H-benzo[b][1,4]oxazin-6-yl)-5-methylpyrazolo[1,5-a]pyrimidin-6-yl)acetic acid]", "values": [
      {"measurement": "EC50", "setting": "[1]", "value": "< 0.1", "unit": "µM"}
    ]},
    {"molecule": "Cc1cc(CNC(=O)c2cc3nc(C)c([C@H](OC(C)(C)C)C(=O)O)c(C4=CCC(C)(C)CC4)n3n2)ccc1F", "note": "[Example 147, (S)-2-(tert-butoxy)-2-(7-(4,4-dimethylcyclohex-1-en-1-yl)-2-((4-fluoro-3-methylbenzyl)carbamoyl)-5-methylpyrazolo[1,5-a]pyrimidin-6-yl)acetic acid]", "values": [
      {"measurement": "EC50", "setting": "[1]", "value": "< 0.1", "unit": "µM"}
    ]},
    {"molecule": "Cc1nc2cc(C(=O)NCCC(C)(C)C)nn2c(C2=CCC(C)(C)CC2)c1[C@H](OC(C)(C)C)C(=O)O", "note": "[Example 148, (S)-2-(tert-Butoxy)-2-(2-((3,3-dimethylbutyl)carbamoyl)-7-(4,4-dimethylcyclohex-1-en-1-yl)-5-methylpyrazolo[1,5-a]pyrimidin-6-yl)acetic acid]", "values": [
      {"measurement": "EC50", "setting": "[1]", "value": "< 0.1", "unit": "µM"}
    ]},
    {"molecule": "Cc1cc(CNC(=O)c2cc3nc(C)c([C@H](OC(C)(C)C)C(=O)O)c(/C=C/CC(C)C)n3n2)ccc1F", "note": "[Example 149, (S,E)-2-(tert-Butoxy)-2-(2-((4-fluoro-3-methylbenzyl)carbamoyl)-5-methyl-7-(4-methylpent-1-en-1-yl)pyrazolo[1,5-a]pyrimidin-6-yl)acetic acid]", "values": [
      {"measurement": "EC50", "setting": "[1]", "value": "> 1", "unit": "µM"}
    ]},
    {"molecule": "Cc1nc2cc(C(=O)NCCC(C)(C)C)nn2c(/C=C/CC(C)C)c1[C@H](OC(C)(C)C)C(=O)O", "note": "[Example 150, (S,E)-2-(tert-Butoxy)-2-(2-((3,3-dimethylbutyl)carbamoyl)-5-methyl-7-(4-methylpent-1-en-1-yl)pyrazolo[1,5-a]pyrimidin-6-yl)acetic acid]", "values": [
      {"measurement": "EC50", "setting": "[1]", "value": "> 1", "unit": "µM"},
      {"measurement": "EC50", "setting": "[2]", "value": 1.2, "unit": "µM"}
    ]}
  ]
}
